The source of these data is patent US11559527B2 (priority 2017, dated 2023).

This experiment deals with A549 lung cancer cells. Description: Tumorsphere formation assay, A549. It counts as cell-based. Here is the method: One of the gold standard techniques for the study and identification of CSCs is the sphere formation assay, an in vitro culture system that enriches for CSCs. Under these anchorage-independent culture conditions, CSCs preferentially form the so-called tumorspheres, whereas more differentiated cells die rapidly.
TUMORSPHERE FORMATION ASSAY: A single cell suspension was prepared using enzymatic (1× Trypsin-EDTA, T3924, Sigma Aldrich), and manual disaggregation (25 gauge needle). […] After 5 days of culture in a humidified incubator at 37° C., tumorspheres bigger than 50 μm were counted using an eye piece graticule.

On to `COc1cc(-n2c(S)nc3ccccc3c2=O)c(Cl)cc1Cl` [mDIVI-1, 3-(2,4-Dichloro-5-methoxyphenyl)-2-sulfanyl-4(3H)-quinazolinone], for which the “decrease of tumorsphere forming capacity” value (A549, 10 μM) is over 15% and the “decrease of tumorsphere forming capacity” value (A549, 50 μM) is recorded as over 80%.
